# pKi: −log10 of the molar value.
# Target: T1, chimeric human H3 receptor (Homo sapiens, UniProt Q9Y5N1)
# T1 construct: made in house; host or cells: Sf9 insect cells (baculovirus); P2 membrane preparation
# Assay: Chimeric human H3 receptor GTP binding assay (Example 7)
# Assay type: biochemical
# Details: agonist (1 μM histamine)-stimulated GTP-gamma35S binding, P2 membranes of Sf9 cells; Ki from IC50 by Cheng-Prusoff
# From the text: This Example illustrates a representative assay for evaluating agonist-stimulated GTP-gamma^35S binding (“GTP binding”) activity. […] This agonist-stimulated GTP binding activity can also be used to detect partial agonism mediated by antagonist compounds. A compound analyzed in this assay is referred to herein as a “test compound.”
# Four independent baculoviral stocks (one directing the expression of the chimeric human H3 receptor and three directing the expression of each of the three subunits of a heterotrimeric G-protein) are used to infect a culture of Sf9 cells as described above. P2 membranes are prepared as described above, and agonist-stimulated GTP binding on the P2 membranes is assessed using histamine (Sigma Chemical Co., St. Louis, Mo.) as agonist in order to ascertain that the receptor/G-protein-alpha-beta-gamma combination(s) yield a functional response as measured by GTP binding. P2 membranes are resuspended by Dounce homogenization (tight pestle) in GTP binding assay buffer (50 mM Tris pH 7.4, 120 mM NaCl, 5 mM MgCl2, 2 mM EGTA, 1 mg/ml BSA, 0.2 mg/ml bacitracin, 0.02 mg/ml aprotinin, 0.01 mg/ml saponin, 10 μM GDP) and added to assay tubes at a concentration of 35 μg protein/reaction tube. After adding increasing doses of histamine at concentrations ranging from 10^−12 M to 10^−5 M, reactions are initiated by the addition of 125 pM GTP-gamma^35S (PERKIN ELMER; Boston, Mass.) with a final assay volume of 0.20 ml. In competition experiments, non-radiolabeled test compounds are added to separate reactions at concentrations ranging from 10^−10 M to 10^−6M along with 1 μM histamine to yield a final volume of 0.20 ml.
# Neutral antagonists are antagonists that are substantially free of inherent agonist activity, and include those test compounds that reduce the histamine-stimulated GTP binding activity towards, but not below, baseline levels. In contrast, in the absence of added histamine, inverse agonists reduce the GTP binding activity of the receptor-containing membranes below baseline.
# After a 60-min incubation at room temperature, reactions are terminated by vacuum filtration over WHATMAN GF/C filters (pre-soaked in wash buffer, 0.1% BSA) followed by washing with ice-cold wash buffer (50 mM Tris pH 7.4, 120 mM NaCl). The amount of receptor-bound (and thereby membrane-bound) GTE-gamma^35S is determined by measuring the filter-bound radioactivity, preferably by liquid scintillation spectrometry of the washed filters. Non-specific binding is determined in parallel assays including 10 μM unlabeled GTP-gammaS and typically represents less than 5 percent of total binding. Data is expressed as percent above basal (baseline). The results of GTP binding experiments are analyzed using SIGMAPLOT software (SPSS Inc., Chicago, Ill.). IC50 values are calculated by non-linear regression analysis of dose-response curves using Kaleidograph (Synergy Software, Reading, Pa.).
# Alternatively the data is analyzed as follows. First, the average bound radioactivity from negative control wells (no agonist) is subtracted from the bound radioactivity detected for each of the other experimental wells. Second, average bound radioactivity is calculated for the positive control wells (agonist wells). Then, percent inhibition for each compound tested is calculated using the equation:
# Calculated IC50 values are converted to Ki values by the Cheng-Prusoff correction (Cheng and Prusoff (1973) Biochem. Pharmacol. 22(23):3099-3108). Accordingly, the following equation: Ki=IC50/(1+[L]/EC50) is used, where [L] is the histamine concentration in the GTP binding assay, and EC50 is the concentration of histamine producing a 50% response, as determined by a dose-response analysis using concentrations of histamine ranging from 10^−10 M to 10^−6M. […]
# T1 sequence (Q9Y5N1 with tags, fused parts or gaps): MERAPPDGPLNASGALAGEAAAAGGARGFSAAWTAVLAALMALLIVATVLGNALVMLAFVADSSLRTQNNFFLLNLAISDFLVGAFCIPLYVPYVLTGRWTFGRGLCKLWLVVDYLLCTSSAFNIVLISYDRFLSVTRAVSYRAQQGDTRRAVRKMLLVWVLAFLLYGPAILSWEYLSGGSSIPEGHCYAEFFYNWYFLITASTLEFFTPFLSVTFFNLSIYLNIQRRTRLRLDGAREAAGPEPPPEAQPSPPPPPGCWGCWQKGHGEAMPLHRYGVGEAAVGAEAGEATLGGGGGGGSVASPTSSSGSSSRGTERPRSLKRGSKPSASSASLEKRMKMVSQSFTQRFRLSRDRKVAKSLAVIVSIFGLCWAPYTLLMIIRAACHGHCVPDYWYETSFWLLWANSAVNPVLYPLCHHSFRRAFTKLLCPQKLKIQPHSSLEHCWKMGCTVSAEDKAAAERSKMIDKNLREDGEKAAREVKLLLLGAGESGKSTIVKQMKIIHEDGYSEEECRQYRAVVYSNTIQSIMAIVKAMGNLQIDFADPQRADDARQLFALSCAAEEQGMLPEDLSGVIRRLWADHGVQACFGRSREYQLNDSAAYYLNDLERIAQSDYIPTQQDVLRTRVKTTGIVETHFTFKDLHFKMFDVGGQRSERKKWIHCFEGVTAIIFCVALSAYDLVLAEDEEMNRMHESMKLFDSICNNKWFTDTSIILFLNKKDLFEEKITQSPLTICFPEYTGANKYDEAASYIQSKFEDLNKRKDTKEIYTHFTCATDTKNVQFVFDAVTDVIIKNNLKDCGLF
row,pKi,SMILES
1,> 6.00,"CCn1c2c(c3ccccc31)CCN(CC(=O)N1CCN(C3CCC3)CC1)C2 [Compound 28, 2-[2-(4-Cyclobutylpiperazin-1-yl)-2-oxoethyl]-9-ethyl-2,3,4,9-tetrahydro-1H-beta-carboline]"
2,> 6.00,"CCCn1c2c(c3ccccc31)CCN(CC(=O)N1CCN(C3CCC3)CC1)C2 [Compound 29, 2-[2-(4-Cyclobutylpiperazin-1-yl)-2-oxoethyl]-9-propyl-2,3,4,9-tetrahydro-1H-beta-carboline]"
3,> 6.00,"CC(C)n1c2c(c3ccccc31)CCN(CC(=O)N1CCN(C3CCC3)CC1)C2 [Compound 30, 2-[2-(4-Cyclobutylpiperazin-1-yl)-2-oxoethyl]-9-isopropyl-2,3,4,9-tetrahydro-1H-beta-carboline]"
4,> 6.00,"O=C(CN1CCc2c(n(CC(F)(F)F)c3ccccc23)C1)N1CCN(C2CCC2)CC1 [Compound 31, 2-[2-(4-Cyclobutylpiperazin-1-yl)-2-oxoethyl]-9-(2,2,2-trifluoroethyl)-2,3,4,9-tetrahydro-1H-beta-carboline]"
5,> 6.00,"O=C(CN1CCc2c([nH]c3ccccc23)C1)N1CCN2CCCCC2C1 (stereo not drawn) [Compound 32, 2-[2-(Octahydro-2H-pyrido[1,2-a]pyrazin-2-yl)-2-oxoethyl]-2,3,4,9-tetrahydro-1H-beta-carboline]"
6,> 6.00,"CC1CCCC2CN(C(=O)CN3CCc4c([nH]c5ccccc45)C3)CCN12 (stereo not drawn) [Compound 33, 2-[2-(6-Methyloctahydro-2H-pyrido[1,2-a]pyrazin-2-yl)-2-oxoethyl]-2,3,4,9-tetrahydro-1571H-beta-carboline]"

# The remaining lines, values behind:
row,SMILES,pKi
1,"COc1ccc2[nH]c3c(c2c1)CCN(CC(=O)N1CCN(C2CCC2)CC1)C3 [Compound 18, 2-[2-(4-Cyclobutylpiperazin-1-yl)-2-oxoethyl]-6-methoxy-2,3,4,9-tetrahydro-1H-beta-carboline]",> 6.00
2,"COc1ccc2c(c1)c1c(n2C)CN(CC(=O)N2CCN(C3CCC3)CC2)CC1 [Compound 19, 2-[2-(4-Cyclobutylpiperazin-1-yl)-2-oxoethyl]-6-methoxy-9-methyl-2,3,4,9-tetrahydro-1H-beta-carboline]",> 6.00
3,"Cc1ccc2[nH]c3c(c2c1)CCN(CC(=O)N1CCN(C2CCC2)CC1)C3 [Compound 20, 2-[2-(4-Cyclobutylpiperazin-1-yl)-2-oxoethyl]-6-methyl-2,3,4,9-tetrahydro-1H-beta-carboline]",> 6.00
4,"O=C(CN1CCc2c([nH]c3ccc(F)cc23)C1)N1CCN(C2CCC2)CC1 [Compound 21, 2-[2-(4-Cyclobutylpiperazin-1-yl)-2-oxoethyl]-6-fluoro-2,3,4,9-tetrahydro-1H-beta-carboline]",> 6.00
5,"O=C(CN1CCc2c([nH]c3ccc(Br)cc23)C1)N1CCN(C2CCC2)CC1 [Compound 22, 6-Bromo-2-[2-(4-cyclobutylpiperazin-1-yl)-2-oxoethyl]-2,3,4,9-tetrahydro-1H-beta-carboline]",> 6.00
6,"Cn1c2c(c3cc(F)ccc31)CCN(CC(=O)N1CCN(C3CCC3)CC1)C2 [Compound 23, 2-[2-(4-Cyclobutylpiperazin-1-yl)-2-oxoethyl]-6-fluoro-9-methyl-2,3,4,9-tetrahydro-1H-beta-carboline]",> 6.00
7,"O=C(CN1CCc2c([nH]c3cc(F)ccc23)C1)N1CCN(C2CCC2)CC1 [Compound 24, 2-[2-(4-Cyclobutylpiperazin-1-yl)-2-oxoethyl]-7-fluoro-2,3,4,9-tetrahydro-1H-beta-carboline]",> 6.00
8,"O=C(CN1CCc2c([nH]c3c(F)cccc23)C1)N1CCN(C2CCC2)CC1 [Compound 25, 2-[2-(4-Cyclobutylpiperazin-1-yl)-2-oxoethyl]-8-fluoro-2,3,4,9-tetrahydro-1H-beta-carboline]",> 6.00
9,"O=C(CN1CCc2c([nH]c3cccc(F)c23)C1)N1CCN(C2CCC2)CC1 [Compound 26, 2-[2-(4-Cyclobutylpiperazin-1-yl)-2-oxoethyl]-5-fluoro-2,3,4,9-tetrahydro-1H-beta-carboline]",> 6.00
10,"O=C(CN1CCc2c([nH]c3cc(-c4cncnc4)ccc23)C1)N1CCN(C2CCC2)CC1 [Compound 27, 2-[2-(4-Cyclobutylpiperazin-1-yl)-2-oxoethyl]-7-pyrimidin-5-yl-2,3,4,9-tetrahydro-1H-beta-carboline]",> 6.00
